Measured values as given in the kinase profiling compilation of Christmann-Franck et al. (2016).

Key:
Assay in all cases: KINOMEscan competition binding
Details in all cases: compound 10.0 µM
ADCK3 (human) = ADCK3 (human) (UniProt Q8NI60)
ADCK4 (human) = ADCK4 (human) (UniProt Q96D53)
AKT1 (human) = AKT1 (human) (UniProt P31749)
AURKB (human) = AURKB (human) (UniProt Q96GD4)
BMPR1A (human) = BMPR1A (human) (UniProt P36894)
BRSK1 (human) = BRSK1 (human) (UniProt Q8TDC3)
CAMK4 (human) = CAMK4 (human) (UniProt Q16566)
Sequence of CAMK4 (human) (Q16566 whole entry, looked up): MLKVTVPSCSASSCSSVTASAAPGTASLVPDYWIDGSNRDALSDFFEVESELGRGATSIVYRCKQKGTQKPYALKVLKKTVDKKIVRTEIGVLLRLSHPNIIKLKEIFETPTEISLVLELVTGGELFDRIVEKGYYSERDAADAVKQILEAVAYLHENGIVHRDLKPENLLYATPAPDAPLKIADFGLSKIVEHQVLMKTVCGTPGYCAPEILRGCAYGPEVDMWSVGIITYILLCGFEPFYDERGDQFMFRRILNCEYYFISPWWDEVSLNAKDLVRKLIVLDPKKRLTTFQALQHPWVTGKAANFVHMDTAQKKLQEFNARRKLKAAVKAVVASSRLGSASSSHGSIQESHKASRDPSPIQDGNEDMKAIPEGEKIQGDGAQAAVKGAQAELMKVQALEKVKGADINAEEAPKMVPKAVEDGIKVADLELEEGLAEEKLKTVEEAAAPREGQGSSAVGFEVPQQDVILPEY

CDC42BPG (human) = CDC42BPG (human) (UniProt Q6DT37)
CDK14 (human) = CDK14 (human) (UniProt O94921)
CDK16 (human) = CDK16 (human) (UniProt Q00536)
CLK4 (human) = CLK4 (human) (UniProt Q9HAZ1)
DAPK1 (human) = DAPK1 (human) (UniProt P53355)
Sequence of DAPK1 (human) (P53355 whole entry, looked up): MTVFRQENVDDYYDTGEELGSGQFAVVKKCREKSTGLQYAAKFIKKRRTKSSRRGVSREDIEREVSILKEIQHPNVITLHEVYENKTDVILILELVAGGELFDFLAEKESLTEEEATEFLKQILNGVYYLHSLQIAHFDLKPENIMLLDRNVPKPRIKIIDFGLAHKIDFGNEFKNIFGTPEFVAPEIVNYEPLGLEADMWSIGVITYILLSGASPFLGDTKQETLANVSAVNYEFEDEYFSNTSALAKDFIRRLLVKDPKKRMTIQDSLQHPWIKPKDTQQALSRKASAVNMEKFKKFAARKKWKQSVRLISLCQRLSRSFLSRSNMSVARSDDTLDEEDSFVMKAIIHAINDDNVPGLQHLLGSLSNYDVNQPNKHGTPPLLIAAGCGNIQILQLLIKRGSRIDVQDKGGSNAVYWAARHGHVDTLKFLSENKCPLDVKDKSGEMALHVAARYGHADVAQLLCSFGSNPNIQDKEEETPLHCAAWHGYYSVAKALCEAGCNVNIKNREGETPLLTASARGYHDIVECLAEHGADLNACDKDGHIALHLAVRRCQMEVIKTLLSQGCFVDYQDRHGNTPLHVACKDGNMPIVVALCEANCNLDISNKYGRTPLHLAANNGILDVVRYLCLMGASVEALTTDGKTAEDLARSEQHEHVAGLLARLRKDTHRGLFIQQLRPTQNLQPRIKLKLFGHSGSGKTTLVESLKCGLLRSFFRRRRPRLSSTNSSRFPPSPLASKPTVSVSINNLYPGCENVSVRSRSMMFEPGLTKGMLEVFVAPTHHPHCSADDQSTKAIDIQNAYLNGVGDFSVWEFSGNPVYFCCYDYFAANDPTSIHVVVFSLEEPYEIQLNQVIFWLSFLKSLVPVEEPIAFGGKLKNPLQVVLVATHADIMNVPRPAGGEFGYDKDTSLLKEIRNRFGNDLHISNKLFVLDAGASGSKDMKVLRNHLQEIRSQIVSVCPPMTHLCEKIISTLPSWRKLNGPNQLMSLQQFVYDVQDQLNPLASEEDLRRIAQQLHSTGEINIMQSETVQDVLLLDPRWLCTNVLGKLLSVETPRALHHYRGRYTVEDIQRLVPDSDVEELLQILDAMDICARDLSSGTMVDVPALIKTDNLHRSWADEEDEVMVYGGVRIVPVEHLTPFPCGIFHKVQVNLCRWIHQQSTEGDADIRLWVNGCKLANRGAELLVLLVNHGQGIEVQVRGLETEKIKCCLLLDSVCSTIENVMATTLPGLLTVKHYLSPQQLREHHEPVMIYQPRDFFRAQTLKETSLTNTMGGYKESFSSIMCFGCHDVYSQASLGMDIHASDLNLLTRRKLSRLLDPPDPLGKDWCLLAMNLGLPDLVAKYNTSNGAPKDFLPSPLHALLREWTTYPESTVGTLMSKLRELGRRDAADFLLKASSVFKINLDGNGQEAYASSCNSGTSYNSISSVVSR

DDR1 (human) = DDR1 (human) (UniProt Q08345)
DYRK1B (human) = DYRK1B (human) (UniProt Q9Y463)
ERBB2 (human) = ERBB2 (human) (UniProt P04626)
FGR (human) = FGR (human) (UniProt P09769)
Sequence of FGR (human) (P09769 whole entry, looked up): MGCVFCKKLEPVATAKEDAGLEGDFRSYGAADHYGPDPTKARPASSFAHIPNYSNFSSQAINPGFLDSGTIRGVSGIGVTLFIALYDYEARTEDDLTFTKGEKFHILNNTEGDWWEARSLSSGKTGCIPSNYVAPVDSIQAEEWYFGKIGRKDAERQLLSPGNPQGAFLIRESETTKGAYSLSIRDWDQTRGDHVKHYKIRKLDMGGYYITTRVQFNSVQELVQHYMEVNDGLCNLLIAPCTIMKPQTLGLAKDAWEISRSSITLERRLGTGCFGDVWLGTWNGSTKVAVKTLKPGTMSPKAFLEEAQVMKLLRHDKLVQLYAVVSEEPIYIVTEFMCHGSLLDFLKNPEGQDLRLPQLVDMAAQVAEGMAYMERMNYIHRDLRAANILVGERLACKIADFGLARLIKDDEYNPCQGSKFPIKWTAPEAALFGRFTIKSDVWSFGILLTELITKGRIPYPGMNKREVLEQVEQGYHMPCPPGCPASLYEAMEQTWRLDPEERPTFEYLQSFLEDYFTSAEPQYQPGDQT

[1] = test system: FLT3 (human), P36888 [N841I]
FRK (human) = FRK (human) (UniProt P42685)
INSRR (human) = INSRR (human) (UniProt P14616)
ITK (human) = ITK (human) (UniProt Q08881)
Sequence of ITK (human) (Q08881 whole entry, looked up): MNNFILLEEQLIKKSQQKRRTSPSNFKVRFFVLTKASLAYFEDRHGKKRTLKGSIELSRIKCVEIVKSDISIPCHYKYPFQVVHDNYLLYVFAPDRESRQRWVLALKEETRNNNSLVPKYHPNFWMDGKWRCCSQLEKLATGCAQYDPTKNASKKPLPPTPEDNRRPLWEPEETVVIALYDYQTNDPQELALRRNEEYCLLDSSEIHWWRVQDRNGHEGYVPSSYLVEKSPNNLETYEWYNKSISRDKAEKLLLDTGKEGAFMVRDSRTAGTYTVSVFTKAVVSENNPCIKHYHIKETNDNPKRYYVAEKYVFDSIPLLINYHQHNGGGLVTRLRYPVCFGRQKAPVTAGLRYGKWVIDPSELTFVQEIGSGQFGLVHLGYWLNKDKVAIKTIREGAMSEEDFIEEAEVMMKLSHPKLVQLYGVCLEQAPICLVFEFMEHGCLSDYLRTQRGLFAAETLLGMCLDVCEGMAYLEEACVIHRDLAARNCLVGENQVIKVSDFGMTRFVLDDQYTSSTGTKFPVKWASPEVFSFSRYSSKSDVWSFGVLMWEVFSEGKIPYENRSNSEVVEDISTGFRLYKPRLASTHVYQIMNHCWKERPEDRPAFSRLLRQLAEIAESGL

[2] = molecular target: JAK1 JH1 catalytic (human) (UniProt P23458)
MAP2K4 (human) = MAP2K4 (human) (UniProt P45985)
MAPK10 (human) = MAPK10 (human) (UniProt P53779)
MKNK1 (human) = MKNK1 (human) (UniProt Q9BUB5)
MYLK3 (human) = MYLK3 (human) (UniProt Q32MK0)
PAK2 (human) = PAK2 (human) (UniProt Q13177)
PAK6 (human) = PAK6 (human) (UniProt Q9NQU5)
PIK3CA (human) = PIK3CA (human) (UniProt P42336)
PLK3 (human) = PLK3 (human) (UniProt Q9H4B4)
Sequence of PLK3 (human) (Q9H4B4 whole entry, looked up): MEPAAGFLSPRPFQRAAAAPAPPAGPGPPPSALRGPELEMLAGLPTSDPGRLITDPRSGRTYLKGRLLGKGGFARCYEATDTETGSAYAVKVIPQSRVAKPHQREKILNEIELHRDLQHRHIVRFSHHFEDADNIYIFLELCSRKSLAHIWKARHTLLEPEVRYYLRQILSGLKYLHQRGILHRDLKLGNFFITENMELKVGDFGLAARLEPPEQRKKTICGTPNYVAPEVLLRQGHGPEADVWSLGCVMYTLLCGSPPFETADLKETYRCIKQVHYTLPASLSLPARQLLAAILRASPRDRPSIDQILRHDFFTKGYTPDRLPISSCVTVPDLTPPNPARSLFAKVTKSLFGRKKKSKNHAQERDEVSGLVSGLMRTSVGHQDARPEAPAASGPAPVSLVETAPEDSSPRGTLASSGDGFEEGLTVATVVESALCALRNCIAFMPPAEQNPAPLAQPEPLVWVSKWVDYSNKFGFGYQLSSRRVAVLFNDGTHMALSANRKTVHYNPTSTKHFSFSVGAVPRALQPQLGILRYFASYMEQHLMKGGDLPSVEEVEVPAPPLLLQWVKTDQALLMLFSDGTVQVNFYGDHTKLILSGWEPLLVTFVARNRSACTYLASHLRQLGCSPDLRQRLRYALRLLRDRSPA

PRKAA1 (human) = PRKAA1 (human) (UniProt Q13131)
PRKACB (human) = PRKACB (human) (UniProt P22694)
[3] = test system: RET (human), P07949 [V804L]
RIOK3 (human) = RIOK3 (human) (UniProt O14730)
Sequence of RIOK3 (human) (O14730 whole entry, looked up): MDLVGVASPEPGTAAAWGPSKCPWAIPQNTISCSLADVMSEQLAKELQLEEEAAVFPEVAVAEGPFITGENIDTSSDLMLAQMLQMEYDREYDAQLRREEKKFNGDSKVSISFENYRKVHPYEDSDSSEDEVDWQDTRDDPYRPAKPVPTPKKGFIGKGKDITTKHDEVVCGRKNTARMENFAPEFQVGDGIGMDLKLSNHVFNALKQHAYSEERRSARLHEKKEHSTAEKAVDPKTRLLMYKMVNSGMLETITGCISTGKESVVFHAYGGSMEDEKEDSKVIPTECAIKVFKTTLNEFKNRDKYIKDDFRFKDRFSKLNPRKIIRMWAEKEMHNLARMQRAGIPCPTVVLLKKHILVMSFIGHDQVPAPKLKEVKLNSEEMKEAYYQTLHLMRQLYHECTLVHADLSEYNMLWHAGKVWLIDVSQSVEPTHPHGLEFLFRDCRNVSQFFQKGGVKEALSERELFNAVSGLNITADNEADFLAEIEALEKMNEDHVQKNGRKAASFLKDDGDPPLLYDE

ROCK2 (human) = ROCK2 (human) (UniProt O75116)
RPS6KA2 KD2 (human) = RPS6KA2 KD2 (human) (UniProt Q15349)
RPS6KA4 KD2 (human) = RPS6KA4 KD2 (human) (UniProt O75676)
SRMS (human) = SRMS (human) (UniProt Q9H3Y6)
Sequence of SRMS (human) (Q9H3Y6 whole entry, looked up): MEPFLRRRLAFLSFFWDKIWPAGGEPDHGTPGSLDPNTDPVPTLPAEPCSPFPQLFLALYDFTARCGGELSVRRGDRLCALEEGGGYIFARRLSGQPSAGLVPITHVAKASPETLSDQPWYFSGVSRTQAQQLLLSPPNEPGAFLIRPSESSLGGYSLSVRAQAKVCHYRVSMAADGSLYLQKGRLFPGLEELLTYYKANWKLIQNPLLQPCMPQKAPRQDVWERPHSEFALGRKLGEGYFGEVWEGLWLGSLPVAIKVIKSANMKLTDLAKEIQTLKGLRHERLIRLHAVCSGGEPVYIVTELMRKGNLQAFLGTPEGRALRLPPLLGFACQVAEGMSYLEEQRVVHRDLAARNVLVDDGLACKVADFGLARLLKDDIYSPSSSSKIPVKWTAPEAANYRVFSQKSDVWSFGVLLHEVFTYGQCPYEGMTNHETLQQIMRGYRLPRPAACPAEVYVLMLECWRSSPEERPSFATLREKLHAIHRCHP

STK24 (human) = STK24 (human) (UniProt Q9Y6E0)
STK4 (human) = STK4 (human) (UniProt Q13043)
TNIK (human) = TNIK (human) (UniProt Q9UKE5)
TNK2 (human) = TNK2 (human) (UniProt Q07912)
TXK (human) = TXK (human) (UniProt P42681)

Sequence of AURKB (human) (Q96GD4 whole entry, looked up): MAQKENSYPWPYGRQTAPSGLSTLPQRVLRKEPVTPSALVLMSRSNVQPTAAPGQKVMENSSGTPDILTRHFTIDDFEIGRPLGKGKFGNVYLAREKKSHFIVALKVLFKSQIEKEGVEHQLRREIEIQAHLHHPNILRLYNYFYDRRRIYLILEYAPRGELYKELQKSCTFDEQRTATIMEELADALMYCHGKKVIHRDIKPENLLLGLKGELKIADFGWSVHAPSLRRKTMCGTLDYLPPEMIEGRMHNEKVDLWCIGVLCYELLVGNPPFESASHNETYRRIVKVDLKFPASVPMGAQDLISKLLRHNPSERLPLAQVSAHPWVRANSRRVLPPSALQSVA

## CCOc1cc(N2CCC(N3CCCCC3)CC2)ccc1Nc1nc(Nc2ccccc2S(=O)(=O)C(C)C)c2cn[nH]c2n1
ADCK3 (human)
  kinase still bound, per cent of control: 84%
ADCK4 (human)
  kinase still bound, per cent of control: 29%
AKT1 (human)
  kinase still bound, per cent of control: 100%
AURKB (human)
  kinase still bound, per cent of control: 100%
BMPR1A (human)
  kinase still bound, per cent of control: 100%
BRSK1 (human)
  kinase still bound, per cent of control: 100%
CAMK4 (human)
  kinase still bound, per cent of control: 1%
CDC42BPG (human)
  kinase still bound, per cent of control: 100%
CDK14 (human)
  kinase still bound, per cent of control: 100%
CDK16 (human)
  kinase still bound, per cent of control: 98%
CLK4 (human)
  kinase still bound, per cent of control: 5.2%
DAPK1 (human)
  kinase still bound, per cent of control: 60%
DDR1 (human)
  kinase still bound, per cent of control: 100%
DYRK1B (human)
  kinase still bound, per cent of control: 42%
ERBB2 (human)
  kinase still bound, per cent of control: 37%
FGR (human)
  kinase still bound, per cent of control: 82%
[1]
  kinase still bound, per cent of control: 100%
FRK (human)
  kinase still bound, per cent of control: 18%
INSRR (human)
  kinase still bound, per cent of control: 0.4%
ITK (human)
  kinase still bound, per cent of control: 40%
[2]
  kinase still bound, per cent of control: 100%
MAP2K4 (human)
  kinase still bound, per cent of control: 8.2%
MAPK10 (human)
  kinase still bound, per cent of control: 7.2%
MKNK1 (human)
  kinase still bound, per cent of control: 53%
MYLK3 (human)
  kinase still bound, per cent of control: 100%
PAK2 (human)
  kinase still bound, per cent of control: 82%
PAK6 (human)
  kinase still bound, per cent of control: 100%
PIK3CA (human)
  kinase still bound, per cent of control: 99%
PLK3 (human)
  kinase still bound, per cent of control: 98%
PRKAA1 (human)
  kinase still bound, per cent of control: 51%
PRKACB (human)
  kinase still bound, per cent of control: 100%
[3]
  kinase still bound, per cent of control: 82%
RIOK3 (human)
  kinase still bound, per cent of control: 88%
ROCK2 (human)
  kinase still bound, per cent of control: 25%
RPS6KA2 KD2 (human)
  kinase still bound, per cent of control: 7.4%
RPS6KA4 KD2 (human)
  kinase still bound, per cent of control: 97%
SRMS (human)
  kinase still bound, per cent of control: 27%
STK24 (human)
  kinase still bound, per cent of control: 82%
STK4 (human)
  kinase still bound, per cent of control: 100%
TNIK (human)
  kinase still bound, per cent of control: 87%
TNK2 (human)
  kinase still bound, per cent of control: 3.4%
TXK (human)
  kinase still bound, per cent of control: 100%
